We go through nine molecules from US11564920B2, “5-heteroaryl-1H-pyrazol-3-amine derivative” (Sumitomo Pharma Co., Ltd., priority 2020, dated 2023).

The structures appear in SMILES notation.

In assay [1] the target is CHK1 (Homo sapiens (Human), UniProt O14757). The assay is described as follows: CHK1 inhibitory activity test (IMAP TR-FRET). It counts as biochemical. To be noted: for effect of suppressing CHK1 activity (in words): compared with prexasertib; for inhibition at 0.0001 µM: read-out: CHK1 inhibition % at 0.1 nM. The procedure: IMAP TR-FRET Screening Express Kit (R8160) was obtained from Molecular Devices. […] FAM-PKAtide (R7255, Molecular Devices) and FAM-Phospho-PKAtide (R7304, Molecular Devices) were admixed after dilution, and calibration standard systems for phosphorylation levels from 0 to 100% were created. 5 μL of a compound dissolved in a 0.4% DMSO solution was added to a 384 well plate. A compound study group to which 5 μL of each of CHK1, CHK1tide, and ATP was added, and a standard group to which 20 μL of standard was added were created, and subjected to a kinase reaction for 3 hours at 30° C. Subsequently, 60 μL of Binding Reagent (80% Buffer A, 20% Buffer B, 1:600 Binding Reagent, 1:400 Tb-Donor) was added for a binding reaction for 2 hours at room temperature.
Chain of CHK1 (O14757 whole entry): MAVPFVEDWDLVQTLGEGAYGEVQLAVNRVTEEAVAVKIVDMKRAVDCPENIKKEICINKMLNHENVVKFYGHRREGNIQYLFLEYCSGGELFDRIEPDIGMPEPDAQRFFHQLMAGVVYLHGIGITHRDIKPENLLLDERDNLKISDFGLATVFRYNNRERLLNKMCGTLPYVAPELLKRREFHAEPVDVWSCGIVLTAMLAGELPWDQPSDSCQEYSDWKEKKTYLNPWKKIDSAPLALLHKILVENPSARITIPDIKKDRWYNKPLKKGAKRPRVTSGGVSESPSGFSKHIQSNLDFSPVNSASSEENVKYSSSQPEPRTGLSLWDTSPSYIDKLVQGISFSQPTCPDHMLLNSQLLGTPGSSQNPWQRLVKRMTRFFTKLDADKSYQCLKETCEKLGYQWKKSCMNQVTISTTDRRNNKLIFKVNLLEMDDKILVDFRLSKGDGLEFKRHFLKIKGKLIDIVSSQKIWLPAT
(In general: Time-resolved FRET reads energy transfer from a long-lived donor to a nearby acceptor.)

Assay [2] relates to ES-2 cells. Description: Cell growth suppression experiment. The format is cell-based. To be noted: for IC50: Homo sapiens, 48 h, cultured for 2 days, read-out: IC50 (cell growth suppression, ranking); for cell growth suppression effect (in words): compared with prexasertib. The procedure: ES-2 cells were obtained from the American Type Culture Collection (ATCC). These cells were cultured at 37° C. in the presence of 5% CO2 in a 10% fetal bovine serum, […] penicillin/streptomycin containing McCoy's 5a medium.
500 cells were seeded for each well in a 384-well plate, and the evaluated compound was added so that the final concentration of DMSO would be 0.1% to culture the cells for 2 days. After completion of the culture, the cell viability rate was calculated using CellTiter-Glo® 3D Reagent (Promega, G968B).

With `COc1cncc(OC[C@H]2CCNC2)c1-c1cc(Nc2cnc(C#N)cn2)n[nH]1` [Example 21, (S)-5-[(5-{3-methoxy-[5-(pyrrolidin-3-yl)methoxy]pyridin-4-yl}-1H-pyrazol-3-yl)amino]pyrazine-2-carbonitrile], in assay [1], the “effect of suppressing CHK1 activity (in words)” value is recorded as “more potent effect of suppressing CHK1 activity than prexasertib” and the inhibition (commonly how much of the control response was suppressed) at 0.0001 µM stood at 15%. In addition, in assay [2], the IC50 (in general, the concentration at which inhibition is half-maximal) was less than 30 nM and the “cell growth suppression effect (in words)” value is on record as “excellent cell growth suppression effect that is equivalent to that of prexasertib”.

As to `COc1cncc(OC[C@@H](C)CN)c1-c1cc(Nc2cnc(C#N)cn2)n[nH]1` [Example 27], the inhibition at 0.0001 µM in assay [1] is less than 5%. Also, the IC50 in assay [2] is less than 30 nM.

`COc1nccc(OCC2(CN)CC2)c1-c1cc(Nc2cnc(C#N)cn2)n[nH]1` [Example 38, 5-{[5-(4-{[1-(aminomethyl)cyclopropyl]methoxy}-2-methoxypyridin-3-yl)-1H-pyrazol-3-yl]amino}pyrazine-2-carbonitrile]: in assay [1], the inhibition at 0.0001 µM is less than 5%. In addition, in assay [2], the IC50 is less than 30 nM and the “cell growth suppression effect (in words)” value was “excellent cell growth suppression effect that is equivalent to that of prexasertib”.

As for `COc1ncnc(OCCCN)c1-c1cc(Nc2cnc(C#N)cn2)n[nH]1` [Example 17, 5-({5-[4-(3-aminopropoxy)-6-methoxypyrimidin-5-yl]-1H-pyrazol-3-yl}amino)pyrazine-2-carbonitrile], in assay [1], the IC50 was determined as 0.3 nM, the “effect of suppressing CHK1 activity (in words)” value was “more potent effect of suppressing CHK1 activity than prexasertib” and the inhibition at 0.0001 µM stood at 24%. Moreover, in assay [2], the IC50 was less than 30 nM and the “cell growth suppression effect (in words)” value was “excellent cell growth suppression effect that is equivalent to that of prexasertib”.

Take `COc1cncc(O[C@H](C)C2(O)CNC2)c1-c1cc(Nc2cnc(C#N)cn2)n[nH]1` [Example 34, 5-[(5-{3-[(1R)-1-(3-hydroxyazetidin-3-yl)ethoxy]-5-methoxypyridin-4-yl}-1H-pyrazol-3-yl)amino]pyrazine-2-carbonitrile]: the inhibition at 0.0001 µM in assay [1] is less than 5%. Further, the IC50 in assay [2] was more than 1000 nM.

For the molecule `COc1cncc(OCC[C@H](C)N)c1-c1cc(Nc2cnc(C#N)cn2)n[nH]1` [Example 10, 5-[(5-{3-[(3S)-3-aminobutoxy]-5-methoxypyridin-4-yl}-1H-pyrazol-3-yl)amino]pyrazine-2-carbonitrile], in assay [1], the “effect of suppressing CHK1 activity (in words)” value is listed as “more potent effect of suppressing CHK1 activity than prexasertib” and the inhibition at 0.0001 µM is 20%. Further, the IC50 in assay [2] is 30 to 100 nM.

Turning to `COc1nccc(OCC2(O)CNC2)c1-c1cc(Nc2cnc(C#N)cn2)n[nH]1` [Example 7, 5-[(5-{4-[(3-hydroxyazetidin-3-yl)methoxy]-2-methoxypyridin-3-yl}-1H-pyrazol-3-yl)amino]pyrazine-2-carbonitrile], in assay [1], the “effect of suppressing CHK1 activity (in words)” value was “more potent effect of suppressing CHK1 activity than prexasertib” and the inhibition at 0.0001 µM was 29%. The concentration for half-maximal inhibition (IC50) in assay [2] fell in the range of 30 to 100 nM.

`COc1nccc(OCCCN)c1-c1cc(Nc2cnc(C#N)cn2)n[nH]1` [Example 4, 5-({5-[4-(3-aminopropoxy)-2-methoxypyridin-3-yl]-1H-pyrazol-3-yl}amino)pyrazine-2-carbonitrile]: in assay [1], the “effect of suppressing CHK1 activity (in words)” value was “more potent effect of suppressing CHK1 activity than prexasertib” and the inhibition at 0.0001 µM came to 25%. In addition, in assay [2], the IC50 is less than 30 nM and the “cell growth suppression effect (in words)” value was “excellent cell growth suppression effect that is equivalent to that of prexasertib”.

With `N#Cc1cnc(Nc2cc(-c3c(OCF)cncc3OCCCN)[nH]n2)cn1` [Example 24, 5-({5-[3-(3-aminopropoxy)-5-(fluoromethoxy)pyridin-4-yl]-1H-pyrazol-3-yl}amino)pyrazine-2-carbonitrile], in assay [1], the “effect of suppressing CHK1 activity (in words)” value is recorded as “more potent effect of suppressing CHK1 activity than prexasertib” and the inhibition at 0.0001 µM is 23%. In addition, the IC50 in assay [2] was in the range of 300 to 1000 nM.
